Values quoted from earlier work, collected in patent US20170071869A1 (Teva Pharmaceutical Industries Ltd., priority 2014, published 2017).

Experiments:
[1] = system: genes related to antigen presentation (NFkB pathway); details: mainly via the NFkB pathway

oral bioavailability: high oral bioavailability
Compound: CCN(C(=O)c1c(O)c2c(Cl)cccc2n(C)c1=O)c1ccccc1 [Laquinimod]
suppression of genes related to antigen presentation and corresponding inflammatory pathways [1]: induced suppression of genes related to antigen presentation
